Experimental data as given in ChEMBL document CHEMBL1165884, “Microwave-assisted synthesis and in-vitro anti-tumor activity of 1,3,4-triaryl-5-N-arylpyrazole-carboxamides” (Eur J Med Chem, 2010).
Converted amounts (≈) assume the structure as drawn.

How the values were obtained:
Caco-2 = assay: Cytotoxicity against human Caco-2 cells after 48 hrs; details: Caco-2, 48 h
HEp-2 = assay: Cytotoxicity against human Hep2 cells after 48 hrs; details: HEp-2, 48 h

Row | SMILES | IC50 (Caco-2) | IC50 (HEp-2)
1 | Cc1ccc(NC(=O)c2c(-c3ccccc3)c(-c3ccccc3)nn2-c2ccccc2)cc1 | 2.21 µg/mL (≈ 5.15 µM) | 1.21 µg/mL (≈ 2.82 µM)
2 | Cc1ccc(NC(=O)c2c(-c3ccc(Cl)cc3)c(-c3ccccc3)nn2-c2ccccc2)cc1 | 1.54 µg/mL (≈ 3.32 µM) | 0.81 µg/mL (≈ 1.75 µM)
3 | O=C(c1c(-c2ccc(Cl)cc2)c(-c2ccccc2)nn1-c1ccccc1)n1c(=S)[nH]c2ccccc21 | 3.29 µg/mL (≈ 6.49 µM) | 1.54 µg/mL (≈ 3.04 µM)
4 | O=C(Nc1ccccc1)c1c(-c2ccccc2)c(-c2ccccc2)nn1-c1ccccc1 | 1.68 µg/mL (≈ 4.04 µM) | 1.5 µg/mL (≈ 3.61 µM)
5 | O=C(c1c(-c2ccccc2)c(-c2ccccc2)nn1-c1ccccc1)n1c(=S)[nH]c2ccccc21 | 1.48 µg/mL (≈ 3.13 µM) | 7.18 µg/mL (≈ 15.2 µM)
6 | O=C(Nc1ccccc1)c1c(-c2ccc(Cl)cc2)c(-c2ccccc2)nn1-c1ccccc1 | 1.74 µg/mL (≈ 3.87 µM) | 0.74 µg/mL (≈ 1.64 µM)
7 | Cc1ccc(NC(=O)c2c(-c3ccccc3)c(-c3ccc(Cl)cc3)nn2-c2ccccc2)cc1 | 0.67 µg/mL (≈ 1.44 µM) | 1.21 µg/mL (≈ 2.61 µM)
8 | COc1cccc2c1C(=O)c1c(O)c3c(c(O)c1C2=O)C[C@@](O)(C(=O)CO)C[C@@H]3O[C@H]1C[C@H](N)[C@H](O)[C@H](C)O1 [DOXORUBICIN] | 1 µg/mL (≈ 1.84 µM) | 0.4 µg/mL (≈ 0.736 µM)
